From patent US11413261B2, “Pharmaceutical composition for treating cancer comprising lactate metal salt” (METIMEDI PHARMACEUTICALS CO., LTD, priority 2014, dated 2022)

Key:
cancer cell = experiment: Dissociation of metal lactate salts to lactate in a cancer cell; format: cell-based
[1] = tested on: VEGF (vascular endothelial growth factor); experiment: VEGF mRNA and protein expression; format: cell-based, human; conditions: HCT-116 and HT-29; 2.5 mM, 24 hours, hypoxia condition
Procedure: Human colorectal cancer cell lines (HCT-116 and HT-29) were treated with 2.5 mM calcium lactate under hypoxia condition and cultured for 24 hours. Then, mRNA expression levels and protein expression levels of VEGF in each of the cultured cancer cell lines were analyzed (FIGS. 16a and 16b). In this case, human colorectal cancer cell lines cultured without treating with calcium lactate under normoxia or hypoxia condition were used as control groups.

[2] = tested on: human vascular endothelial cell (HUVEC); experiment: Tube formation of HUVEC in culture supernatants of treated cancer cell lines; format: cell-based
From the text: A human vascular endothelial cell (HUVEC) was inoculated into each of the obtained culture supernatant and cultured to analyze a conformational change of cells (FIG. 17). In this case, an HUVEC cultured using the culture medium of a cancer cell line cultured without treating with calcium lactate was used as a control group, and an HUVEC cultured with the treatment with Sulforaphane, which is a growth inhibitor of an HUVEC, was used as a comparison group.

[3] = tested on: colorectal cancer cell line HCT-116; experiment: Cell migration of colorectal cancer cell line (culture insert); format: cell-based; conditions: 2.5 mM, 24 hours, then 12 hours after insert removal
Procedure: A colorectal cancer cell line HCT-116 with the cell number of 4×10^5 cells was inoculated into a culture container at the center of which an ibidi culture insert having a thickness of 500 μm was placed, and treated with 2.5 mM calcium lactate and then cultured for 24 hours. Then, the insert was removed and further cultured for 12 hours to analyze migration of the cancer cells to a site where the insert was removed using a JuLi Br, Live cell analyzer (NanoEnTek Inc., South Korea) (FIG. 18). In this case, a colorectal cancer cell line cultured without treating with calcium lactate was used as a control group.

MCF-7 cell line = experiment: Cell apoptosis rate by flow cytometry (FITC Annexin V / PI); format: cell-based; conditions: 2.5 mM, 24 hours (untreated 9.63%)
Procedure: (§1) Breast cancer cell lines (MCF-7 and MDA-MB231) were cultured for 24 hours with or without treating with 2.5 mM calcium lactate. Each of the breast cancer cell lines were treated with 5 μl of FITC Annexin V and 5 μl of PI and reacted at room temperature for 15 minutes and then, a flow cytometry analysis was conducted thereto using a FACS Calibur (BD Bioscience, USA) to evaluate staining thereof and thus measure a cancer cell apoptosis rate (FIG. 21a-21f).

MDA-MB231 cell line = experiment: as above; format: cell-based; conditions: 2.5 mM, 24 hours (untreated 10.17%)
Procedure: as §1

[4] = tested on: human colorectal cancer cell lines (HT-29 and HCT-116); experiment: Colony-forming ability, anticancer drug in combination with calcium lactate (6-well plates); format: cell-based; conditions: 2.5 mM calcium lactate alone, vs control
Procedure: Human colorectal cancer cell lines (HT-29 and HCT-116) with the cell number of 1×10^3 cells were seeded into an RPMI1640 medium in each of 6-well plates. After one day, the medium was replaced with fresh medium and the cells were treated with 2.5 mM calcium lactate or 1 μM, 2.5 μM, and 5 μM Imatinib alone or treated with various concentrations (1 μM, 2.5 μM, and 5 μM) of Imatinib in combination with 2.5 mM calcium lactate. Then, the colony-forming abilities of the cells were compared. In this case, human colorectal cancer cell lines (HT-29 and HCT-116) untreated with any drug were used as control groups (FIGS. 38a, 38b, 39a and 39b).
Human colorectal cancer cell lines (HT-29 and HCT-116) with the cell number of 1×10^3 cells were seeded into an RPMI1640 medium in each of 6-well plates. After one day, the medium was replaced with fresh medium and the cells were treated with 2.5 mM calcium lactate or 2.5 μM, 5 μM, and 10 μM 5-FU alone or treated with various concentrations (2.5 μM, 5 μM, and 10 μM) of 5-FU in combination with 2.5 mM calcium lactate. Then, the colony-forming abilities of the cells were compared. In this case, human colorectal cancer cell lines (HT-29 and HCT-116) untreated with any drug were used as control groups (FIGS. 40a, 40 b, 41a and 41b).

[5] = tested on: human lung cancer cell line (A549); experiment: as above; format: cell-based; conditions: 2.5 mM calcium lactate alone, vs control
Procedure: Human breast cancer cell line (MCF-7) and a human lung cancer cell line (A549) with the cell number of 1×10^3 cells were seeded into an RPMI1640 medium in each of 6-well plates. […]. Then, the colony-forming abilities of the cells were compared. In this case, a human breast cancer cell line (MCF-7) and a human lung cancer cell line (A549) untreated with any drug were used as control groups (FIGS. 42a, 42b, 43a and 43b).
(§2) Human lung cancer cell line (A549) with the cell number of 1×10^3 cells were seeded into an RPMI1640 medium in each of 6-well plates. […]. Then, the colony-forming abilities of the cells were compared. In this case, a human lung cancer cell line (A549) untreated with any drug was used as a control group (FIGS. 44a and 44b).
as §2, with “47a” for “44a”, “47b).” for “44b).”
as §2, with “49a” for “44a”, “49b).” for “44b).”
as §2, with “50a” for “44a”, “50b).” for “44b).”
as §2, with “51a” for “44a”, “51b).” for “44b).”

[6] = tested on: human colorectal cancer cell line HCT-116; conditions: 5 mM calcium lactate individually, 10 days

CC(O)C(=O)[O-].CC(O)C(=O)[O-].[Ca+2] (stereo not shown) [calcium lactate]
dissociation to lactate in a cancer cell (cancer cell): can be dissociated to lactate
VEGF level (mRNA and protein) [1]: decreased
tube-forming ability of HUVEC ([2]; culture supernatant of cancer cell line treated with 2.5 mM): reduced tube-forming ability similar to the comparison group treated with Sulforaphane
tube-forming ability of HUVEC ([2]; culture supernatants of cancer cell lines treated with 0.5, 1, 1.5, 2.5 mM for 24 hours, vs control): reduced tube-forming ability
cell migration [3]: decreased
cell apoptosis rate (MCF-7 cell line): 33.8%
cell apoptosis rate (MDA-MB231 cell line): 13.05%
colony-forming ability [4]: suppressed
colony-forming ability [5]: suppressed
survival rate [6]: about 60%
